Series [1] has as its system SARS-CoV-2. Kind of series: microbe, parasite or virus in culture. It is filed as cell-based. The following applies: Severe acute respiratory syndrome coronavirus 2, Vero C1008, 96 h.
For series [2], the system named is SARS-CoV-2. Kind of series: microbe, parasite or virus in culture. It is filed as cell-based.
The subject of series [3] is SARS-CoV-2. The following applies: cited from earlier work.
Series [4] has as its system replicating Mycobacterium tuberculosis. The following applies: cited from earlier work.
Series [5] has as its system Para-Influenza-3 virus, Reovirus, Sindbis virus, Cocsackie B4 virus, Punto Toro virus and Yellow Fever Virus. The following applies: cited from earlier work.
A further series concerns Babesia. Conditions: mice; cited from earlier work.
The conditions of series [6]: in vivo; cited from earlier work.
Another series deals with P. variotii. Put plainly: Antifungal MIC (RPMI-1640 microdilution). It is filed as cell-based. Conditions: Paecilomyces variotii, read-out: MIC 100% inhibition. (Broth dilution looks for growth in wells or tubes with falling amounts of substance.)
In another series the test system is Aspergillus flavus. Put plainly: Antifungal MIC (RPMI-1640 microdilution). It is filed as cell-based.
For a further series, the system named is Aspergillus fumigatus. Kind of series: Antifungal MIC (RPMI-1640 microdilution). It is filed as cell-based.
The subject of the next series is Fusarium sp. Kind of series: Antifungal MIC (RPMI-1640 microdilution). It is filed as cell-based.
A further series relates to Altenaria sp. Put plainly: Antifungal MIC (RPMI-1640 microdilution). It is filed as cell-based. The following applies: read-out: MIC 100% inhibition.
Another series concerns Curvularia sp. Put plainly: Antifungal MIC (RPMI-1640 microdilution). It is filed as cell-based. The following applies: read-out: MIC 100% inhibition.
The next series deals with Exserohilum sp. Kind of series: Antifungal MIC (RPMI-1640 microdilution). It is filed as cell-based. The following applies: read-out: MIC 100% inhibition.
The next series can be described thus: in vitro. Conditions: African green monkey.

The structures appear in SMILES notation. Values after ≈ are worked out from the molar mass of the structure shown. Where two headings read alike, the source gives them in different places.

The source of these data is patent publication US12691107B2, “Methods for the treatment and prevention of lung infections caused by gram-positive bacteria, fungus, or virus by administration of tafenoquine” (priority 2020, dated 2026).

A word on the EC50: it is the concentration needed to bring the measured effect to its halfway point.

As for `CCN(CCO)CCCC(C)Nc1ccnc2cc(Cl)ccc12` (stereo not drawn) [Hydroxychloroquine], the inhibition at 33 µM in the series on SARS-CoV-2 [1] (33 microM, 4-day assay, read-out: inhibition at the highest non-toxic concentration) came to 43%. Also, the EC50 in the series with SARS-CoV-2 [2] (Severe acute respiratory syndrome coronavirus 2, Vero C1008, Vero E6, moi 0.05, 48 hours, TCID50) stood at 10.4 µM. Moreover, the selectivity index with SARS-CoV-2 [2] (calculated relative to the CC50 for the 4-day test) is given as 5.3. For the same molecule, in the series with SARS-CoV-2 [3], the “fold less potent in CALU-3 than in VERO cells” value is 10 fold.

`COc1cc(NC(C)CCCN)c2ncccc2c1` (stereo not drawn) [Primaquine]: the MIC in series [4] was 256 microgram/ml. Also, the EC50 in series [5] was over 50 µM. Further, in the series with Babesia, the “dose clearing Babesia parasitemia” value is on record as 100 mg/kg. For the same molecule, in series [6], the half-life entry is on record as “approximately 6 hours”.

Turning to `C[C@@H](c1ncncc1F)[C@](O)(Cn1cncn1)c1ccc(F)cc1F` [Voriconazole], the MIC with P. variotii was 0.125 mg/L (≈ 0.358 µM); in the series on Aspergillus flavus (ATCC204304, read-out: MIC 100% inhibition, isolate ATCC 204304), 1 mg/L (≈ 2.86 µM); in the series on Aspergillus flavus (read-out: MIC 100% inhibition, isolate Aflav2), 2 mg/L (≈ 5.73 µM); in the series with Aspergillus flavus (read-out: MIC 100% inhibition, isolate Aflav3), 1 mg/L (≈ 2.86 µM); with Aspergillus fumigatus (read-out: MIC 100% inhibition, isolate AF293), 1 mg/L (≈ 2.86 µM); in the series on Aspergillus fumigatus (read-out: MIC 100% inhibition, isolate D115-106), over 16 mg/L. Also, the MIC with Aspergillus fumigatus (read-out: MIC 100% inhibition, isolate D115-116) was 8 mg/L (≈ 22.9 µM); with Fusarium sp. (read-out: MIC 100% inhibition, isolate FO1), 4 mg/L (≈ 11.5 µM); in the series with Fusarium sp. (read-out: MIC 100% inhibition, isolate FS2), over 16 mg/L; with Fusarium sp. (read-out: MIC 100% inhibition, isolate FSI) it was 8 mg/L (≈ 22.9 µM); in the series with Altenaria sp. it was 2 mg/L (≈ 5.73 µM); with Curvularia sp. it was 0.5 mg/L (≈ 1.43 µM). For the same molecule, the MIC in the series with Exserohilum sp. was determined as 0.5 mg/L (≈ 1.43 µM).

`CCN(CC)CCCC(C)Nc1ccnc2cc(Cl)ccc12` (stereo not drawn) [chloroquine]: in the series with SARS-CoV-2 [3], the “fold less potent in CALU-3 than in VERO cells” value is 10 fold.

On to `CCC(CC)COC(=O)[C@H](C)N[P@](=O)(OC[C@H]1O[C@@](C#N)(c2ccc3c(N)ncnn23)[C@H](O)[C@@H]1O)Oc1ccccc1` [Remdesivir], for which the EC50 in the series on SARS-CoV-2 [1] is 0.7 µM. In “in vitro”, this molecule yielded a CC50 of over 100 µM.
